In patent US20140308317A1, “Polymeric Compounds And Methods Of Making And Using The Same” (CELLCEUTIX CORPORATION, priority 2012, published 2014):
Values after ≈ are worked out from the molar mass of the structure shown. Like-named read-outs stand apart in the source and are kept apart here.

Key:
E. Coli ATCC 25922 = assay: Minimum Inhibitory Concentration (MIC), modified microbroth dilution; type: cell-based; details: Escherichia coli, read-out: MIC50 E. coli
[1] = test system: Staphylococcus aureus ATCC 27660; assay: as above; type: cell-based; details: Staphylococcus aureus, read-out: MIC50 S. aureus
[2] = test system: Klebsiella pneumoniae ATCC 13883; assay: as above; type: cell-based; details: Klebsiella pneumoniae, read-out: MIC50 K. Pnuemnoiae
[3] = test system: Pseudomonas aeruginosa ATCC 10145; assay: as above; type: cell-based; details: Pseudomonas aeruginosa, read-out: MIC50 P. Aeruginosa
[4] = test system: Enterococcus faecalis ATCC 29212; assay: as above; type: cell-based; details: Enterococcus faecalis, read-out: MIC50 E. faecalis
[5] = Cytotoxicity colorimetric (tetrazolium) assay; type: cell-based, human; details: human, HepG2 cells (HB-8065), HepG2 cells; one hour with compound in serum-free media
Protocol: (§1) Cytotoxicity of the compounds was evaluated in a colorimetric assay using a transformed human liver cell line (HepG2, HB-8065) and an embryonic mouse cell line (NIH/3T3 cells, CRL-1658). This assay measures the bioreduction of a novel tetrazolium compound to a soluble formazan product by viable cells. HepG2 cells were seeded in 96 well plates at 2×10^4 cells/well in MEM medium with 10% fetal bovine serum (FBS) 24 hours prior to use. NIH/3T3 cells were seeded in 96 well plates at 2×10^4 cells/well in DMEM medium with 10% bovine calf serum (BCS) 24 hours prior to use. Cell monolayers were rinsed in serum-free media and incubated for one hour with compounds in serum-free media. After incubation, the media is replaced with serum supplemented media and live cells were measured using the Cell Titer 96 Aqueous […] Assay kit (Promega, Madison, Wis.). EC50 values were determined using a four parameter logistic equation: Y=Bottom+(Top-Bottom)/(1+10̂((LogEC50−X)*HillSlope)).
(§2) Actual results from a representative cytotoxicity assay are shown below in Table 2. Data is expressed as EC50 in μg/mL.

[6] = Cytotoxicity colorimetric (tetrazolium) assay; type: cell-based, mouse; details: mouse, NIH/3T3 cells (CRL-1658), NIH/3T3 cells; one hour with compound in serum-free media
Protocol: as §1, §2

[7] = ATCC25922, E. coli (25922), overnight incubation (18 hours)
[8] = ATCC27660, S. aureus (27660), overnight incubation (18 hours)
[9] = ATCC13883, K. pneumoniae (13883), overnight incubation (18 hours)
[10] = ATCC10145, P. aeruginosa (10145), overnight incubation (18 hours)
[11] = ATCC29212, E. faecalis (29212), overnight incubation (18 hours)

MIC50 (E. Coli ATCC 25922; [7]) [µg/mL] | MIC50 [1, 8] [µg/mL] | MIC50 [2, 9] [µg/mL] | MIC50 [3, 10] [µg/mL] | MIC50 [4, 11] [µg/mL] | Structure (SMILES) | EC50 at 1 h [5] [µg/mL] | EC50 at 1 h [6] [µg/mL] | MIC50 (E. Coli ATCC 25922; ATCC25922, 18 h) [µg/mL] | MIC50 ([1]; ATCC27660, 18 h) [µg/mL] | MIC50 ([2]; ATCC13883, 18 h) [µg/mL] | MIC50 ([3]; ATCC10145, 18 h) [µg/mL] | MIC50 ([4]; ATCC29212, 18 h) [µg/mL]
12.5 (≈ 30.7 µM) | 1.56 (≈ 3.84 µM) | 12.5 (≈ 30.7 µM) | 100 (≈ 246 µM) | 12.5 (≈ 30.7 µM) | NCCCn1c2cc(-c3cccc(N)c3)ccc2c2ccc(-c3cccc(N)c3)cc21 [Compound 159] | 64.7 (≈ 159 µM) | 45.7 (≈ 112 µM) | – | – | – | – | –
50 (≈ 79.8 µM) | 6.25 (≈ 9.97 µM) | > 50 | 25 (≈ 39.9 µM) | 25 (≈ 39.9 µM) | NCCCOc1cc(OCCCN)cc(-c2ccc(C(=O)c3ccc(-c4cc(OCCCN)cc(OCCCN)c4)cc3)cc2)c1 [Compound 165] | 355 (≈ 566 µM) | 357 (≈ 570 µM) | – | – | – | – | –
6.25 (≈ 8.9 µM) | 1.56 (≈ 2.22 µM) | 25 (≈ 35.6 µM) | 12.5 (≈ 17.8 µM) | 6.25 (≈ 8.9 µM) | NCCCOc1cc(OCCCN)cc(-c2ccc3sc4ccc(-c5cc(OCCCN)c(OCCCN)c(OCCCN)c5)cc4c3c2)c1 [Compound 182] | 173 (≈ 246 µM) | 78.2 (≈ 111 µM) | – | – | – | – | –
50 (≈ 87.9 µM) | 6.25 (≈ 11 µM) | > 50 | 25 (≈ 44 µM) | > 50 | NCCc1cc(CCN)cc(-c2csc(-c3cccc(-c4nc(-c5cc(CCN)cc(CCN)c5)cs4)c3)n2)c1 [Compound 135] | 134 (≈ 236 µM) | 34.5 (≈ 60.6 µM) | – | – | – | – | –
– | – | – | – | – | NCCCN1c2ccccc2Sc2ccccc21 [Compound 100] | 18 (≈ 70.2 µM) | 13 (≈ 50.7 µM) | 100 (≈ 390 µM) | 100 (≈ 390 µM) | 100 (≈ 390 µM) | 100 (≈ 390 µM) | 100 (≈ 390 µM)
3.13 (≈ 5.06 µM) | 0.78 (≈ 1.26 µM) | 6.25 (≈ 10.1 µM) | 12.5 (≈ 20.2 µM) | 1.56 (≈ 2.52 µM) | N=C(N)NCCc1ccc(C#Cc2cccc(C#Cc3ccc(CCNC(=N)N)c(CCNC(=N)N)c3)c2)cc1CCNC(=N)N [Compound 195] | 163 (≈ 263 µM) | 95.8 (≈ 155 µM) | – | – | – | – | –
50 (≈ 111 µM) | 25 (≈ 55.5 µM) | 50 (≈ 111 µM) | 50 (≈ 111 µM) | 50 (≈ 111 µM) | NCCc1cc(C#Cc2ccc(C#Cc3cc(CCN)cc(CCN)c3)cc2)cc(CCN)c1 [Compound 198] | 185 (≈ 411 µM) | 282 (≈ 626 µM) | – | – | – | – | –
12.5 (≈ 27.7 µM) | 1.56 (≈ 3.46 µM) | 25 (≈ 55.5 µM) | 25 (≈ 55.5 µM) | 1.56 (≈ 3.46 µM) | NCCc1cccc(-c2cc(-c3cccc(-c4cc(-c5cccc(CCN)c5)on4)c3)no2)c1 [Compound 128] | 47 (≈ 104 µM) | 22.3 (≈ 49.5 µM) | – | – | – | – | –
12.5 (≈ 27.7 µM) | 1.56 (≈ 3.46 µM) | > 50 | 12.5 (≈ 27.7 µM) | 6.25 (≈ 13.9 µM) | NCCc1ccc(C#Cc2cccc(C#Cc3ccc(CCN)c(CCN)c3)c2)cc1CCN [Compound 194] | 192 (≈ 426 µM) | 154 (≈ 342 µM) | – | – | – | – | –
12.5 (≈ 23.4 µM) | 0.78 (≈ 1.46 µM) | 50 (≈ 93.5 µM) | 25 (≈ 46.8 µM) | 12.5 (≈ 23.4 µM) | N=C(N)NCCc1cccc(-c2coc(-c3cccc(-c4nc(-c5cccc(CCNC(=N)N)c5)co4)c3)n2)c1 [Compound 134] | 70.9 (≈ 133 µM) | 33.4 (≈ 62.5 µM) | – | – | – | – | –
> 50 | 50 (≈ 151 µM) | > 50 | > 50 | 25 (≈ 75.4 µM) | NCCc1cccc(-c2coc(-c3cccc(-c4ncco4)c3)n2)c1 [Compound 133] | 130 (≈ 392 µM) | 70.2 (≈ 212 µM) | – | – | – | – | –
1.56 (≈ 2.7 µM) | 0.39 (≈ 0.674 µM) | 6.25 (≈ 10.8 µM) | 12.5 (≈ 21.6 µM) | 6.25 (≈ 10.8 µM) | NCCCn1c2cc(-c3cccc(N(CCN)CCN)c3)ccc2c2ccc(-c3cccc(N(CCN)CCN)c3)cc21 [Compound 160] | 853 (≈ 1470 µM) | 451 (≈ 779 µM) | – | – | – | – | –
1.56 (≈ 2.52 µM) | 0.78 (≈ 1.26 µM) | 1.56 (≈ 2.52 µM) | 12.5 (≈ 20.2 µM) | 12.5 (≈ 20.2 µM) | N=C(N)NCCc1cc(C#Cc2ccc(C#Cc3cc(CCNC(=N)N)cc(CCNC(=N)N)c3)cc2)cc(CCNC(=N)N)c1 [Compound 199] | 135 (≈ 218 µM) | 116 (≈ 188 µM) | – | – | – | – | –
